Experimental data reported in patent publication US20260124214A1, “HETEROCYCLIC COMPOUNDS FOR USE IN THE TREATMENT OF CANCER” (ARTIOS PHARMA LIMITED, priority 2021, published 2026).
Counter-ions that a name gives are not always drawn.

target: T1, Human Polθ polymerase domain (aa1820-2590) (Homo sapiens, UniProt O75417); test: Polθ Polymerase Domain WT KI Assay (PicoGreen); type: biochemical; conditions: 100 nM DNA substrate, 0.156 nM Polθ, initial rates vs inhibitor concentration
T1 construct: Human Polθ polymerase domain (aa1820-2590) was expressed in E. Coli; made in house; host or cells: E. coli
T1 sequence (O75417 1820-2590): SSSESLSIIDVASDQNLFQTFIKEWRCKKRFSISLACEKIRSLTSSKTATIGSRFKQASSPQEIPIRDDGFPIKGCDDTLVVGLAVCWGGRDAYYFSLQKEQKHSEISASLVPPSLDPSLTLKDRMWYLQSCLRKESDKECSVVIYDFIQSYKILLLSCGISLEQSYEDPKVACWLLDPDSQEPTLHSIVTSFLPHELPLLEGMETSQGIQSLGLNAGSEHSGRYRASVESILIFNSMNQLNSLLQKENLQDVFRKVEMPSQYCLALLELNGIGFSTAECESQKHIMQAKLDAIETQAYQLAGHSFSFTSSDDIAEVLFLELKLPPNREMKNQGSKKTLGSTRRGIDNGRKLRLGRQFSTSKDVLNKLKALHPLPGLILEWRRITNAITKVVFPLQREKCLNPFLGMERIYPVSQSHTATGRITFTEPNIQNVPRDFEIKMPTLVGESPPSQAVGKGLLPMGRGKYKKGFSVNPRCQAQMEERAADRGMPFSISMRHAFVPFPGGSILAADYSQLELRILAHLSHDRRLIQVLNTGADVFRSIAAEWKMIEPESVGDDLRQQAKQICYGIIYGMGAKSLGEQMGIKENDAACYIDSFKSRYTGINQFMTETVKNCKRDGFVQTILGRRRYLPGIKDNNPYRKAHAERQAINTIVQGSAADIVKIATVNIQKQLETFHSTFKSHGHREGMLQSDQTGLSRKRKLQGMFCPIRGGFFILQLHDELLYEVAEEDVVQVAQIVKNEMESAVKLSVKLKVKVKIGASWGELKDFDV
Outline: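 E. coli-expressed human Polθ polymerase domain (aa1820-2590) on annealed DNA II Short/Long primer-template (1.2:1), in 25 mM Tris pH 7.5, NaCl, 5% glycerol, 0.01% Triton X-100, 0.1 mg/ml BSA, 1 mM DTT, 1% DMSO. EDTA-quenched timepoints to 180 min, PicoGreen fluorescence. Initial rates vs inhibitor concentration fitted four-parameter for KI.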

Ki	SMILES
1.25 nM	Cc1cc(C(F)(F)F)cc(N2C(=O)C[C@@H]3CN(CCN4CCN(S(C)(=O)=O)CC4)c4c(Cl)cccc4N(C)C(=O)[C@H]32)n1 [Example 36, (3aR,11aS)-6-Chloro-10-methyl-1-(6-methyl-4-(trifluoromethyl)pyridin-2-yl)-5-(2-(4-(methylsulfonyl)piperazin-1-yl)ethyl)-1,3a,4,5,10,11a-hexahydro-2H-benzo[b]pyrrolo[2,3-f][1,4]diazocine-2,11(3H)-dione]
1.74 nM	Cc1cc(C(F)(F)F)cc(N2C(=O)C[C@@H]3CN(CCN4CCS(=O)(=O)CC4)c4c(Cl)cccc4N(C)C(=O)[C@H]32)n1 [Example 37, (3aR,11aS)-6-Chloro-5-(2-(1,1-dioxidothiomorpholino)ethyl)-10-methyl-1-(6-methyl-4-(trifluoromethyl)pyridin-2-yl)-1,3a,4,5,10,11a-hexahydro-2H-benzo[b]pyrrolo[2,3-f][1,4]diazocine-2,11(3H)-dione]
1.2 nM	Cc1cc(C(F)(F)F)cc(N2C(=O)C[C@@H]3CN(CCN4CCC(C#N)CC4)c4c(Cl)cccc4N(C)C(=O)[C@H]32)n1 [Example 38, 1-(2-((3aR,11aS)-6-Chloro-10-methyl-1-(6-methyl-4-(trifluoromethyl)pyridin-2-yl)-2,11-dioxo-1,2,3,3a,4,10,11,11a-octahydro-5H-benzo[b]pyrrolo[2,3-f][1,4]diazocin-5-yl)ethyl)piperidine-4-carbonitrile]
4.13 nM	Cc1cc(C(F)(F)F)cc(N2C(=O)C[C@@H]3CN(CCN4CC[C@H](C#N)C4)c4c(Cl)cccc4N(C)C(=O)[C@H]32)n1 [Example 39, (S)-1-(2-((3aR,11aS)-6-Chloro-10-methyl-1-(6-methyl-4-(trifluoromethyl)pyridin-2-yl)-2,11-dioxo-1,2,3,3a,4,10,11,11a-octahydro-5H-benzo[b]pyrrolo[2,3-f][1,4]diazocin-5-yl)ethyl)pyrrolidine-3-carbonitrile]
2.92 nM	Cc1cc(C(F)(F)F)cc(N2C(=O)C[C@@H]3CN(CCN4CC[C@@H](C#N)C4)c4c(Cl)cccc4N(C)C(=O)[C@H]32)n1 [Example 40, (R)-1-(2-((3aR,11aS)-6-Chloro-10-methyl-1-(6-methyl-4-(trifluoromethyl)pyridin-2-yl)-2,11-dioxo-1,2,3,3a,4,10,11,11a-octahydro-5H-benzo[b]pyrrolo[2,3-f][1,4]diazocin-5-yl)ethyl)pyrrolidine-3-carbonitrile]
2.9 nM	Cc1cc(C(F)(F)F)cc(N2C(=O)C[C@@H]3CN(CCN4CC[C@H](C(=O)N(C)C)C4)c4c(Cl)cccc4N(C)C(=O)[C@H]32)n1 [Example 41, (S)-1-(2-((3aR,11aS)-6-Chloro-10-methyl-1-(6-methyl-4-(trifluoromethyl)pyridin-2-yl)-2,11-dioxo-1,2,3,3a,4,10,11,11a-octahydro-5H-benzo[b]pyrrolo[2,3-f][1,4]diazocin-5-yl)ethyl)-N,N-dimethylpyrrolidine-3-carboxamide]
4.96 nM	Cc1cc(C(F)(F)F)cc(N2C(=O)C[C@@H]3CN(CCN4CC[C@@H](C(=O)N(C)C)C4)c4c(Cl)cccc4N(C)C(=O)[C@H]32)n1 [Example 42, (R)-1-(2-((3aR,11aS)-6-Chloro-10-methyl-1-(6-methyl-4-(trifluoromethyl)pyridin-2-yl)-2,11-dioxo-1,2,3,3a,4,10,11,11a-octahydro-5H-benzo[b]pyrrolo[2,3-f][1,4]diazocin-5-yl)ethyl)-N,N-dimethylpyrrolidine-3-carboxamide]
3.05 nM	Cc1cc(C(F)(F)F)cc(N2C(=O)C[C@@H]3CN(CCN4CCN5C(=O)COC[C@H]5C4)c4c(Cl)cccc4N(C)C(=O)[C@H]32)n1 [Example 43, (3aR,11aS)-6-Chloro-10-methyl-1-(6-methyl-4-(trifluoromethyl)pyridin-2-yl)-5-(2-((R)-4-oxohexahydropyrazino[2,1-c][1,4]oxazin-8(1H)-yl)ethyl)-1,3a,4,5,10,11a-hexahydro-2H-benzo[b]pyrrolo[2,3-f][1,4]diazocine-2,11(3H)-dione]
0.349 nM	Cc1cc(C(F)(F)F)cc(N2C(=O)C[C@@H]3CN(CCN4CCOCC4)c4c(C)cccc4N(C)C(=O)[C@H]32)n1 [Example 44, (3aR,11aS)-6,10-Dimethyl-1-(6-methyl-4-(trifluoromethyl)pyridin-2-yl)-5-(2-morpholinoethyl)-1,3a,4,5,10,11a-hexahydro-2H-benzo[b]pyrrolo[2,3-f][1,4]diazocine-2,11(3H)-dione]
0.515 nM	Cc1cc(C(F)(F)F)cc(N2C(=O)C[C@@H]3CN(CCN4CCN(C)[C@@H](C)C4)c4c(C)cccc4N(C)C(=O)[C@H]32)n1 [Example 46, (3aR,11aS)-5-(2-((S)-3,4-Dimethylpiperazin-1-yl)ethyl)-6,10-dimethyl-1-(6-methyl-4-(trifluoromethyl)pyridin-2-yl)-1,3a,4,5,10,11a-hexahydro-2H-benzo[b]pyrrolo[2,3-f][1,4]diazocine-2,11(3H)-dione dihydrochloride]
0.605 nM	Cc1cc(C(F)(F)F)cc(N2C(=O)C[C@@H]3CN(CCN4CCN(C)[C@H](C)C4)c4c(C)cccc4N(C)C(=O)[C@H]32)n1 [Example 47, (3aR,11aS)-5-(2-((R)-3,4-Dimethylpiperazin-1-yl)ethyl)-6,10-dimethyl-1-(6-methyl-4-(trifluoromethyl)pyridin-2-yl)-1,3a,4,5,10,11a-hexahydro-2H-benzo[b]pyrrolo[2,3-f][1,4]diazocine-2,11(3H)-dione dihydrochloride]
0.307 nM	Cc1cc(C(F)(F)F)cc(N2C(=O)C[C@@H]3CN(CCN4CCN(C)C[C@H]4C)c4c(C)cccc4N(C)C(=O)[C@H]32)n1 [Example 48, (3aR,11aS)-5-(2-((R)-2,4-Dimethylpiperazin-1-yl)ethyl)-6,10-dimethyl-1-(6-methyl-4-(trifluoromethyl)pyridin-2-yl)-1,3a,4,5,10,11a-hexahydro-2H-benzo[b]pyrrolo[2,3-f][1,4]diazocine-2,11(3H)-dione dihydrochloride]
0.457 nM	Cc1cc(C(F)(F)F)cc(N2C(=O)C[C@@H]3CN(CCN4CCN(C)C[C@@H]4C)c4c(C)cccc4N(C)C(=O)[C@H]32)n1 [Example 49, (3aR,11aS)-5-(2-((S)-2,4-Dimethylpiperazin-1-yl)ethyl)-6,10-dimethyl-1-(6-methyl-4-(trifluoromethyl)pyridin-2-yl)-1,3a,4,5,10,11a-hexahydro-2H-benzo[b]pyrrolo[2,3-f][1,4]diazocine-2,11(3H)-dione dihydrochloride]
0.928 nM	Cc1cc(C(F)(F)F)cc(N2C(=O)C[C@@H]3CN(CCN4CCN(C(=O)[C@@H](C)O)CC4)c4c(C)cccc4N(C)C(=O)[C@H]32)n1 [Example 51, (3aR,11aS)-5-(2-(4-((R)-2-Hydroxypropanoyl)piperazin-1-yl)ethyl)-6,10-dimethyl-1-(6-methyl-4-(trifluoromethyl)pyridin-2-yl)-1,3a,4,5,10,11a-hexahydro-2H-benzo[b]pyrrolo[2,3-f][1,4]diazocine-2,11(3H)-dione hydrochloride]
0.957 nM	Cc1cc(C(F)(F)F)cc(N2C(=O)C[C@@H]3CN(CCN4CCN(C(=O)[C@H](C)O)CC4)c4c(C)cccc4N(C)C(=O)[C@H]32)n1 [Example 52, (3aR,11aS)-5-(2-(4-((S)-2-Hydroxypropanoyl)piperazin-1-yl)ethyl)-6,10-dimethyl-1-(6-methyl-4-(trifluoromethyl)pyridin-2-yl)-1,3a,4,5,10,11a-hexahydro-2H-benzo[b]pyrrolo[2,3-f][1,4]diazocine-2,11(3H)-dione hydrochloride]
1.23 nM	Cc1cc(C(F)(F)F)cc(N2C(=O)C[C@@H]3CN(CCN4CCN(CCO)CC4)c4c(C)cccc4N(C)C(=O)[C@H]32)n1 [Example 53, (3aR,11aS)-5-(2-(4-(2-Hydroxyethyl)piperazin-1-yl)ethyl)-6,10-dimethyl-1-(6-methyl-4-(trifluoromethyl)pyridin-2-yl)-1,3a,4,5,10,11a-hexahydro-2H-benzo[b]pyrrolo[2,3-f][1,4]diazocine-2,11(3H)-dione]
5.56 nM	Cc1cc(C(F)(F)F)cc(N2C(=O)C[C@@H]3CN(CCN(C)CCO)c4c(C)cccc4N(C)C(=O)[C@H]32)n1 [Example 54, (3aR,11aS)-5-(2-((2-Hydroxyethyl)(methyl)amino)ethyl)-6,10-dimethyl-1-(6-methyl-4-(trifluoromethyl)pyridin-2-yl)-1,3a,4,5,10,11a-hexahydro-2H-benzo[b]pyrrolo[2,3-f][1,4]diazocine-2,11(3H)-dione]
